Test results taken from PubChem BioAssay AID1508591.

conditions: rat; liver microsomes; pH 7.4; 15.0 min; 1.0 µM

| Compound | half-life |
| --- | --- |
| Cc1ccnc(NC(=S)N2CCN(c3cc(C(F)(F)F)cc(C(F)(F)F)c3)CC2)c1 | > 30 min |
| Fc1ccc(Nc2nccc(-c3ccncc3)n2)cc1F | 16 min |
| CCN(CC)c1ccc(Nc2nc(Cl)ncc2Br)cc1 | 6.24 min |
| NC(=O)C1CCN(c2nc(-c3ccc4c(c3)OCCO4)cs2)CC1 | 3.09 min |
| O=C(Nc1ccc([S+](=O)([O-])Nc2nccs2)cc1)c1ccccn1 | 2.4 min |
| O=[S+]([O-])(Nc1ccccc1)c1ccc(NCc2ccc(Cl)cc2O)cc1 | 1.8 min |
| Cc1cccc(N2CCN(c3nc4ccccc4c4nnc(C)n34)CC2)c1C | 17.6 min |
| Nc1nc2c(s1)C(c1cc(Cl)ccc1F)CC(=O)N2 (stereo not given) | > 30 min |
| Cc1noc(-c2cn(C3CCN(C(=O)c4ccc(OC(F)(F)F)cc4)CC3)nn2)n1 | > 30 min |
| Cc1cc(C)c(C(=O)Nc2cccc([S+](=O)([O-])Nc3ccc(Br)cc3)c2)[nH]1 | 7.7 min |
| NC[C@H](O)c1ccc(O)c(O)c1 | 13.4 min |
| O=[S+]([O-])(Nc1cccc2ccccc12)c1ccc(NCc2ccc(Cl)cc2O)cc1 | 5.4 min |
| COC(=O)c1ccc(NC(=O)c2nc3ccccc3n(C)c2=O)cc1 | 2.98 min |
| C=CCON=C(C[C@H]1O[C@@H]2O[C@]3(C)CC[C@@H]4[C@H](C)CC[C@@H]([C@H]1C)[C@@]24OO3)[C@H]1O[C@@H]2O[C@]3(C)CC[C@H]4[C@H](C)CC[C@@H]([C@@H]1C)[C@@]24OO3 | 2.8 min |
| Cc1nnn(C)c1-c1cnc2c3ccc(C(C)(C)O)cc3n([C@H](c3ccccc3)C3CCOCC3)c2c1 | > 30 min |
| COc1ccc(-c2csc(NC(=O)c3ccccc3NS(=O)(=O)c3ccc(C)cc3)n2)cc1 | 2.34 min |
| C[C@@]1(C(=O)Nc2ccc(F)nc2)CCCN1c1nc(Nc2cc(C3CC3)[nH]n2)c2cccn2n1 | 8.35 min |
| COc1cccc(OC)c1C(=O)Nc1ccccc1C(=O)Nc1cccc(C(F)(F)F)c1 | 3.11 min |
| CC1CCc2cc(F)ccc2N1C(=O)CSc1nnc2c(n1)[nH]c1ccccc12 (stereo not given) | 2.02 min |
| CN(C)C(=O)c1cc2cnc(Nc3ccc(N4CCNCC4)cn3)nc2n1C1CCCC1 | > 30 min |

| Compound | half-life |
| --- | --- |
| CC(C)c1ccc(OCc2nc3c(n2Cc2ccccc2)C(=O)N(CC2CCOCC2)CCN3)cc1 | 1.68 min |
| Cc1ccc2oc3c(c(=O)c2c1)C(c1ccc(O)cc1)N(CCCN(C)C)C3=O (stereo not given) | > 30 min |
| COc1ccc(S(=O)(=O)N2CCOCC2)cc1NC(=O)c1cccc(-n2cccc2)c1 | 3.37 min |
| CC(C)N(CCCNC(=O)Nc1ccc(C(C)(C)C)cc1)C[C@H]1O[C@@H](n2ccc3c(N)ncnc32)[C@H](O)[C@@H]1O | 2.42 min |
| COc1ccc(Cn2c(C(=O)O)c(CNCc3ccco3)c3ccc(C)cc32)cc1 | > 30 min |
| CCc1cc(Cl)c(OC)c(C(=O)NC[C@@H]2CCCN2CC)c1O | 1.71 min |
| COC(=O)CNC(=O)c1nc(-c2ccc([S+](C)(=O)[O-])cc2)c2cnccn12 | > 30 min |
| O=C(Nc1ccc2oc(-c3ccncc3)nc2c1)c1ccccc1Cl | > 30 min |
| COc1ccc(-n2nc(C3CCCN(C(=O)c4ccccc4F)C3)[nH]c2=O)cc1 (stereo not given) | > 30 min |
| COc1ccc(NC(=O)c2[nH]c(C)c(C(C)=O)c2C)cc1[S+](=O)([O-])Nc1ccccc1C#N | > 30 min |
| Cc1ccc(-c2nc(C)c(C(=O)Nc3ccc4c(c3)C(=O)N3CCC[C@H]3C(=O)N4)s2)cc1 | 27.2 min |
| COc1ccc2[nH]c(=O)c(-c3noc(-c4ccccc4)n3)cc2c1 | > 30 min |
| CCS(=O)(=O)c1cccc(C(=O)Nc2ccc(-c3nc4ccccc4s3)c(O)c2)c1 | > 30 min |
| N#C/C(=C\c1ccc(-c2ccc(C(=O)O)cc2)o1)c1nc2ccccc2[nH]1 | > 30 min |
| COC(=O)c1ccnc(NC(=S)N2CCN(c3cccc(C(F)(F)F)c3)CC2)c1 | > 30 min |
| COc1ccc(-n2nc(C3CCN([S+](=O)([O-])c4c(C)noc4C)CC3)[nH]c2=O)cc1 | 22.9 min |
| Cc1cccc(NCc2ccc(O)c3ncccc23)c1 | 2.2 min |
| COc1ccc(OCc2ccc(-c3nc(C#N)c(NC(C)c4ccccc4)o3)o2)cc1 (stereo not given) | 4.14 min |
| CSc1nc(N)cc(Oc2ccc(-c3nc(Nc4cccc(C(F)(F)F)c4)n[nH]3)cc2)n1 | 21.2 min |
| CCOc1ccc(NC(=O)c2ccc(F)c(S(=O)(=O)N(CC)Cc3ccccc3)c2)cc1 | 1.3 min |

| Compound | half-life |
| --- | --- |
| Cc1noc(C)c1C(=O)N1CCC2(CCCN(Cc3ccccc3)C2)CC1 | 7.2 min |
| CN1C(=O)c2ccccc2[S@](=O)c2ccc(C(=O)NCCN3CCCC3)cc21 | > 30 min |
| COC[C@@H]1CN(C(=O)c2nn(C)c3ccccc23)C[C@H]1c1nc(C)no1 | 25.7 min |
| CN(C)C(=O)c1nc(-c2ccc(Cl)cc2Cl)c2cnccn12 | 6.29 min |
| COc1cccc(CNc2ccc([S+](=O)([O-])Nc3ccccc3)cc2)c1Cl | 2.4 min |
| COc1cc([C@@H]2c3cc4c(cc3[C@H](O)[C@H]3COC(=O)[C@H]23)OCO4)cc(OC)c1OC | > 30 min |
| Cc1cnc(-c2ccccc2OC(C)C)nc1NCc1ccc(-n2ccnn2)cc1 | 6.45 min |
| CSc1nn(Cc2cccc(C)c2)c(N)c1S(=O)(=O)c1ccccc1 | 1.2 min |
| c1cc(-c2cc(-c3ccncc3)c3cncn3c2)c2cc[nH]c2c1 | 5.63 min |
| O=C(O)c1ccncc1Nc1nn(CCN2CCC(F)(F)CC2)c2ccc(F)cc12 | 22.2 min |
| Cc1ccc(S(=O)(=O)Nc2cc(Cl)ccc2C(=O)Nc2nc(-c3ccccc3)cs2)cc1 | 7.65 min |
| CC[C@@H](C)Nc1cc(C(=O)NC2CC3CCC(C2)N3c2ccc(C(=O)C3CC3)cn2)c(C)cc1C(N)=O (stereo not given in full) | 23.4 min |
| Cc1cc(N)c2cc(NC(=O)Nc3ccc4nc(C)cc(N)c4c3)ccc2n1 | > 30 min |
| Cc1noc(C)c1CN1CCNc2cc(Nc3ccccc3)ncc2C1 | 5.25 min |
| Cc1nc(-c2ccco2)cc([C@H]2CN3CC[C@H]2C[C@@H]3CNC(=O)NC2CCCCC2)n1 | 29.6 min |
| CCC(CC)C(=O)NC[C@@H]1C=C(C)[C@H](Cc2nc3c(C)cccc3[nH]2)C[C@H]1C(C)C | 1.12 min |
| COc1ccc(-n2nc(C)c([C@@H]3C=C[C@@H](NCc4cccc(Cl)c4)C3)c2C)cc1 | 4.19 min |
| FC(F)(F)c1ccccc1-c1nc(NCc2cccc(Cl)c2)c2ccccc2n1 | 2.97 min |

The remaining lines, values ahead:

| half-life | Compound |
| --- | --- |
| 15 min | O=S(=O)(Nc1ccc2ccccc2c1)c1ccc(NCc2ccc(Br)cc2O)cc1 |
| 2.3 min | CC(=O)N[C@H]1CN(C2CCN(c3ccc(F)cc3C)CC2)C[C@@H]1C1CC1 |
| 2.8 min | Fc1cnc(-c2ccccc2C(F)F)nc1NCC1CCN(c2cnccn2)C1 (stereo not given) |
| 18.2 min | O=C(Nc1nc(-c2ccccc2)cs1)c1ccncc1NS(=O)(=O)c1ccc(Cl)cc1 |
| 11.9 min | O=C(NC1CCCc2c1cnn2-c1cccc(O)c1)c1ccccn1 (stereo not given) |
| 26 min | O=C1Nc2ccccc2/C1=C\c1cc(Br)c(O)c(Br)c1 |
| 6.18 min | OCc1ccc(-c2ccc(-c3ccc(CO)s3)o2)s1 |
| > 30 min | CC(=O)Nc1cccc(-c2csc(Nc3cc(C)ccn3)n2)c1 |
| > 30 min | CC1(C)CCC(c2ccc(Cl)cc2)=C(CN2CCN(c3ccc(C(=O)NS(=O)(=O)c4ccc(N[C@H](CCN5CCOCC5)CSc5ccccc5)c(S(=O)(=O)C(F)(F)F)c4)cc3)CC2)C1 |
| > 30 min | CC(C)=CCNc1ncnc2nc[nH]c12 |
| > 30 min | CC(=O)Nc1ncc(S(=O)(=O)Nc2cnccc2C(=O)Nc2nc(-c3ccccc3)cs2)s1 |
| 25.9 min | CCCCOc1ccc(C2c3c(oc4ccc(C)cc4c3=O)C(=O)N2CCCN(C)C)cc1OCC (stereo not given) |
| > 30 min | Cc1noc([C@@H]2CN(C(=O)c3nn(C)c4ccccc34)C[C@H]2CO)n1 |
| 0.9 min | Cc1csc2nc(-c3cccc(NC(=O)c4ccccc4Cl)c3)cn12 |
| 24 min | Cc1sc(NC(=O)Cc2ccc3c(c2)OCO3)nc1-c1ccc2c(c1)CCN2C(=O)c1ccccc1Cl |
| 8.9 min | Cc1ccc(-n2ncc3c(NCCCN(C)C)ncnc32)cc1Cl |
| 5.4 min | O=S(=O)(Nc1nccs1)c1ccc(NCc2ccc(Br)cc2O)cc1 |
| 2.2 min | Cc1nn(Cc2ccccc2Cl)c(C)c1CN(C)CC(O)COc1ccc(Cl)cc1 (stereo not given) |
| > 30 min | CCOC(=O)Nc1cc(-c2ccc(C)c(NS(C)(=O)=O)c2)nn2c(C)nnc12 |
| > 30 min | CC1(C)C(=O)NC2=C1C(=O)C(=O)c1ccccc12 |
| 1.95 min | CN1CCN(CCCN2c3ccccc3Sc3ccc(S(=O)(=O)N(C)C)cc32)CC1 |

| half-life | Compound |
| --- | --- |
| 8.16 min | COc1ccc(C2=Nc3ccc(Br)cc3C(c3ccccc3)N2CC(=O)NN)cc1 (stereo not given) |
| > 30 min | Cc1nc2ccc(C(=O)N3CCC4(CC3)CC(=O)c3c(cnn3C(C)C)C4)cc2[nH]1 |
| > 30 min | NCC(=O)Nc1ccc(Cl)cc1C(=O)c1ccc[nH]1 |
| 5.3 min | CN(C)c1ccc2cc(C(=O)N[C@@H](CCCN=C(N)CCl)C(=O)NCc3ccccc3)ccc2c1 |
| > 30 min | O=C(Nc1cc(C(F)(F)F)ccc1N1CCOCC1)c1n[nH]c(=O)c2ccccc12 |
| 12.7 min | COc1cc(C2c3c(oc4cc(C)c(C)cc4c3=O)C(=O)N2CCCN2CCOCC2)ccc1O (stereo not given) |
| 5.25 min | CN(C)c1cccc(-c2cnc(Nc3cccnc3)c3c2CCO3)c1 |
| > 30 min | NC(=O)C1CCN(c2ncc(Br)cn2)CC1 |
| > 30 min | O=C(Nc1ccc([N+](=O)[O-])cc1Cl)c1cc(Cl)ccc1O |
| 1.55 min | CCNC(=O)c1coc(COc2ccc3c(c2)C(c2ccc(F)cc2)N(C(=O)CC(C)C)CC3)n1 (stereo not given) |
| > 30 min | CN(C)C(=O)c1cccc(-c2csc(N3CCC(C(N)=O)CC3)n2)c1 |
| 2.04 min | CN(C(=O)CSc1nc2ccc(NC(=O)c3ccc(F)cc3)cc2s1)c1ccccc1 |
| 23 min | CCc1ccc(NC(=O)c2[nH]c(C)c(C(C)=O)c2C)cc1S(=O)(=O)Nc1ccc(Br)cc1 |
| 4.33 min | FC(F)(F)c1ccccc1-c1nc(NCc2cccc3ccccc23)c2ccccc2n1 |
| > 30 min | NC(=O)C1CCN(c2nnc(-c3ccc4c(c3)OCCCO4)s2)CC1 |
| 5.53 min | NC(=O)C1CCN(c2nc(-c3ccc([N+](=O)[O-])cc3)cs2)CC1 |
| > 30 min | c1ccc(-c2nnc3n2NC(c2ccc4c(c2)OCO4)S3)cc1 (stereo not given) |
| 1.8 min | Cc1ccc(OCCn2c(CCNC(=O)c3ccc(Cl)cc3)nc3ccccc32)cc1 |
| 2.1 min | O=C(c1cnc(N2CCCCC2)c2ccccc12)N1CCN(c2ccccn2)CC1 |
| 5.07 min | COc1ccc(C(=O)c2sc(Nc3cccc(Cl)c3)nc2N)cc1 |
| 2.48 min | Brc1ccc(-c2csc(N3CCOCC3)n2)cc1 |
